From patent publication US20220073536A1 (Rigel Pharmaceuticals, Inc., priority 2003, published 2022)

Columns and labels:
[1] = system: cultured human mast cells (CHMC); experiment: CHMC low cell density ionomycin activation: tryptase assay; format: cell-based; conditions: 3 pt, read-out: LD Tryptase, CHMC, Iono, 3 pt
[2] = system: cultured human mast cells (CHMC); experiment: CHMC low cell density IgE activation: tryptase assay; format: cell-based; conditions: IgE activation
In short: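 Tryptase release was read from supernatant with a fluorogenic substrate (30 min, room temperature) after anti-IgE challenge of cultured human mast cells (1000–1500 cells/well, low density) for 30 minutes at 37° C.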

[3] = Homo sapiens, Mast cell, low cell density CHMC, tryptase
[4] = Homo sapiens, Mast cell, low cell density CHMC, tryptase, 3 pt, read-out: LD Tryptase, CHMC, IgE, 3 pt
[5] = low cell density CHMC, tryptase
[6] = low cell density CHMC, tryptase, 3 pt, read-out: LD Tryptase, CHMC, IgE, 3 pt
[7] = Homo sapiens, Mast cell, low cell density
[8] = Homo sapiens, Mast cell, low cell density, 3 pt, read-out: LD Tryptase, CHMC, IgE, 3 pt
[9] = low cell density, 3 pt, read-out: LD Tryptase, CHMC, IgE, 3 pt
[10] = Homo sapiens, Mast cell, low cell density, 8 pt, read-out: LD Tryptase, CHMC, IgE, 8 pt
[11] = low cell density, 8 pt, read-out: LD Tryptase, CHMC, IgE, 8 pt

| Compound | IC50 [1, 7] [µM] | IC50 [2, 8] [µM] | other results |
| --- | --- | --- | --- |
| COC(=O)CN(c1ccc2c(c1)OCCO2)c1nc(Nc2ccc(-c3ncco3)cc2)ncc1F [Compound 445] | – | – | IC50 [1, 3]: > 10 µM; IC50 [2, 4]: < 10 µM |
| CNC(=O)COc1cccc(Nc2ncc(F)c(N(CC(=O)OC)c3ccc4c(c3)OCCO4)n2)c1 [Compound 446, N4-(3,4-Ethylenedioxyphenyl)-5-fluoro-N4-(methoxycarbonylmethyl)-N2-[3-(N-methylamino)carbonylmethyleneoxyphenyl]-2,4-pyrimidinediamine] | – | – | IC50 [1, 5]: > 10 µM; IC50 [2, 6]: < 10 µM |
| CNC(=O)COc1cccc(Nc2ncc(F)c(N(C)c3ccc(OC)c(OC)c3)n2)c1 [Compound 447, N4-(3,4-Dimethoxyphenyl)-5-fluoro-N4-methyl-N2-[3-(N-methylamino)carbonylmethyleneoxyphenyl]-2,4-pyrimidinediamine] | – | – | IC50 [1, 5]: > 10 µM; IC50 [2, 6]: < 10 µM |
| CNC(=O)c1cc(Nc2ncc(F)c(Nc3ccc4c(c3)OCCO4)n2)ccc1Cl [Compound 448] | – | – | IC50 [1, 3]: > 10 µM; IC50 [2, 4]: < 10 µM; IC50 ([2]; Homo sapiens, Mast cell, low cell density CHMC, tryptase, 8 pt, read-out: LD Tryptase, CHMC, IgE, 8 pt): < 10 µM |
| CNC(=O)c1cc(Nc2ncc(F)c(Nc3ccc(OC)c(OC)c3)n2)ccc1Cl [Compound 449, N2-[4-Chloro-3-(N-methylamino)carbonylphenyl]-N4-(3,4-dimethoxyphenyl)-5-fluoro-2,4-pyrimidinediamine] | – | – | IC50 [1, 3]: > 10 µM; IC50 [2, 4]: < 10 µM |
| CNC(=O)c1cc(Nc2ncc(F)c(Nc3cc(OC)cc(OC)c3)n2)ccc1Cl [Compound 450] | – | – | IC50 [1, 3]: > 10 µM; IC50 [2, 4]: < 10 µM |
| CNC(=O)c1cc(Nc2ncc(F)c(Nc3ccc(OC)c(Cl)c3)n2)ccc1Cl [Compound 451, N4-(3-Chloro-4-methoxyphenyl)-N2-[4-chloro-3-(N-methylamino)carbonylphenyl]-5-fluoro-2,4-pyrimidinediamine] | < 10 | < 10 | – |
| CCOC(=O)C(C)(C)Oc1ccc(Nc2nc(Nc3ccc(Cl)c(C(=O)NC)c3)ncc2F)cc1Cl [Compound 452, N4-[3-Chloro-4-(ethoxycarbonyl-1,1-dimethylmethyleneoxy)phenyl]-N2-[4-chloro-3-(N-methylamino)carbonylphenyl]-5-fluoro-2,4-pyrimidinediamine] | – | – | IC50 ([1]; low cell density): < 10 µM; IC50 [2, 9]: < 10 µM |
| CNC(=O)c1cc(Nc2ncc(F)c(N(C)c3ccc4c(c3)OCCO4)n2)ccc1Cl [Compound 453, N2-[4-Chloro-3-(N-methylamino)carbonylphenyl]-N4-(3,4-ethylenedioxyphenyl)-5-fluoro-N4-methyl-4-pyrimidinediamine] | – | – | IC50 ([1]; low cell density): > 10 µM; IC50 [2, 9]: < 10 µM |
| CNC(=O)c1cc(Nc2ncc(F)c(N(C)c3ccc(OC)c(OC)c3)n2)ccc1Cl [Compound 454, N2-[4-Chloro-3-(N-methylamino)carbonylphenyl]-N4-(3,4-dimethoxyphenyl)-5-fluoro-N4-methyl-4-pyrimidinediamine] | – | – | IC50 ([1]; low cell density): > 10 µM; IC50 [2, 9]: < 10 µM |
| CNC(=O)c1cc(Nc2ncc(F)c(Nc3ccc4c(c3)NC(=O)C(C)(C)O4)n2)ccc1Cl [Compound 455] | > 10 | < 10 | IC50 [2, 10]: < 10 µM |
| CNC(=O)c1ccc(Nc2ncc(F)c(Nc3ccc4c(c3)NC(=O)C(C)(C)O4)n2)cc1Cl [Compound 456, N2-[3-Chloro-4-(N-methylamino)carbonylphenyl]-N4-(2,2-dimethyl-3-oxo-4H-benz[1,4]oxazin-6-yl)-5-fluoro-2,4-pyrimidinediamine] | < 10 | < 10 | IC50 [2, 10]: < 10 µM |
| COc1cc(OC)cc(N(C)c2nc(Nc3ccc(OC)nc3OC)ncc2F)c1 [Compound 457] | < 10 | < 10 | IC50 [2, 10]: < 10 µM |
| COc1ccc(Nc2ncc(F)c(N(C)c3ccc4c(c3)OCCO4)n2)c(OC)n1 [Compound 458] | > 10 | > 10 | – |
| COc1cc(Nc2nc(Nc3ccc(OC)nc3OC)ncc2F)cc(OC)c1 [Compound 459] | > 10 | < 10 | – |
| COc1ccc(Nc2ncc(F)c(Nc3ccc4c(c3)OCCO4)n2)c(OC)n1 [Compound 460] | > 10 | < 10 | – |
| CNc1ncc(F)c(N(C)c2ccc3c(c2)OCCO3)n1 [Compound 461] | > 10 | > 10 | – |
| CN(C)c1ncc(F)c(N(C)c2ccc3c(c2)OCCO3)n1 [Compound 462, N2-Dimethyl-N4-(3,4-ethylenedioxyphenyl)-5-fluoro-N4-methyl-2,4-pyrimidinediamine] | – | – | IC50 ([1]; low cell density): > 10 µM; IC50 [2, 9]: > 10 µM |

| Compound | IC50 [1, 7] [µM] | IC50 [2, 8] [µM] | other results |
| --- | --- | --- | --- |
| CNC(=O)c1ccc(Nc2ncc(F)c(Nc3ccc4c(c3)OCCO4)n2)cc1Cl [Compound 463] | > 10 | < 10 | IC50 [2, 10]: < 10 µM |
| CNC(=O)c1ccc(Nc2ncc(F)c(Nc3ccc(OC)c(OC)c3)n2)cc1Cl [Compound 464, N2-[3-Chloro-4-(N-methylamino)carbonylphenyl]-N4-(3,4-dimethoxyphenyl)-5-fluoro-2,4-pyrimidinediamine] | > 10 | < 10 | – |
| CNC(=O)c1ccc(Nc2ncc(F)c(Nc3cc(OC)cc(OC)c3)n2)cc1Cl [Compound 465] | > 10 | < 10 | – |
| CNC(=O)c1ccc(Nc2ncc(F)c(Nc3ccc(OC)c(Cl)c3)n2)cc1Cl [Compound 466] | > 10 | < 10 | IC50 [2, 10]: < 10 µM |
| CCOC(=O)C(C)(C)Oc1ccc(Nc2nc(Nc3ccc(C(=O)NC)c(Cl)c3)ncc2F)cc1Cl [Compound 467, N4-[3-Chloro-4-(ethoxycarbonyl-1,1-dimethylmethyleneoxy)phenyl]-N2-[3-chloro-4-(N-methylamino)carbonylphenyl]-5-fluoro-2,4-pyrimidinediamine] | – | – | IC50 ([1]; low cell density): < 10 µM; IC50 [2, 9]: < 10 µM; IC50 [2, 11]: < 10 µM |
| CNC(=O)c1ccc(Nc2ncc(F)c(Nc3cccc(O)c3)n2)cc1Cl [Compound 468] | > 10 | < 10 | IC50 [2, 10]: < 10 µM |
| CN(c1ccc2c(c1)OCCO2)c1nc(NCCO)ncc1F [Compound 469, N4-(3,4-Ethylenedioxyphenyl)-5-fluoro-N2-(2-hydroxyethyl)-N4-methyl-2,4-pyrimidinediamine] | > 10 | > 10 | – |
| CCOC(=O)C(C)(C)Oc1ccc(N(C)c2nc(Cl)ncc2F)cc1Cl [Compound 470, 2-Chloro-N4-[3-chloro-4-(ethoxycarbonyl-1,1-dimethylmethyleneoxy)phenyl]-5-fluoro-N4-methyl-4-pyrimidineamine] | – | – | IC50 ([1]; low cell density): < 10 µM; IC50 [2, 9]: > 10 µM |
| CC(C)Nc1ncc(F)c(N(C)c2ccc3c(c2)OCCO3)n1 [Compound 471, N4-(3,4-Ethylenedioxyphenyl)-5-fluoro-N2-isopropyl-N4-methyl-2,4-pyrimidinediamine] | > 10 | > 10 | – |
| COc1ccc(Nc2ncc(F)c(Nc3cccc(O)c3)n2)c(OC)n1 [Compound 472] | > 10 | < 10 | – |
| CNC(=O)c1ccc(Nc2ncc(F)c(N(C)c3ccc4c(c3)OCCO4)n2)cc1Cl [Compound 473, N2-[3-Chloro-4-(N-methylamino)carbonylphenyl]-N4-(3,4-ethylenedioxyphenyl)-5-fluoro-N4-methyl-2,4-pyrimidinediamine] | > 10 | < 10 | – |
| CNC(=O)c1ccc(Nc2ncc(F)c(N(C)c3ccc(OC)c(OC)c3)n2)cc1Cl [Compound 474, N2-[3-Chloro-4-(N-methylamino)carbonylphenyl]-N4-(3,4-dimethoxyphenyl)-5-fluoro-N4-methyl-2,4-pyrimidinediamine] | > 10 | < 10 | – |
| CNC(=O)c1cc(Nc2nc(Nc3cc(OC)cc(OC)c3)ncc2F)ccc1Cl [Compound 475, N4-[4-Chloro-3-(N-methylamino)carbonylphenyl]-N2-(3,5-dimethoxyphenyl)-5-fluoro-2,4-pyrimidinediamine] | > 10 | < 10 | IC50 [2, 10]: < 10 µM |
| CNC(=O)c1cc(Nc2nc(Nc3cc(C)cc(C)c3)ncc2F)ccc1Cl [Compound 476, N4-[4-Chloro-3-(N-methylamino)carbonylphenyl]-N2-(3,5-dimethylphenyl)-5-fluoro-2,4-pyrimidinediamine] | > 10 | < 10 | IC50 [2, 10]: < 10 µM |
| CNC(=O)COc1cccc(Nc2ncc(F)c(Nc3ccc(Cl)c(C(=O)NC)c3)n2)c1 [Compound 477, N4-[4-Chloro-3-(N-methylamino)carbonylphenyl]-5-fluoro-N2-[3-(N-methylamino)carbonylmethyleneoxyphenyl]-2,4-pyrimidinediamine] | – | – | IC50 ([1]; low cell density): > 10 µM; IC50 [2, 9]: < 10 µM; IC50 [2, 11]: < 10 µM |
| CNC(=O)c1ccc(Nc2ncc(F)c(Nc3ccc(Cl)c(C(=O)NC)c3)n2)cc1Cl [Compound 478, N2-[3-Chloro-4-(N-methylamino)carbonylphenyl]-N4-[4-chloro-3-(N-methylamino)carbonylphenyl]-5-fluoro-2,4-pyrimidinediamine] | > 10 | < 10 | – |
| CNC(=O)c1cc(Nc2ccnc(Nc3ccc4cc[nH]c4c3)n2)ccc1Cl [Compound 479, N4-[4-Chloro-3-(N-methylamino)carbonylphenyl]-N2-(indol-6-yl)-2,4-pyrimidinediamine] | > 10 | < 10 | – |
| COc1ncc(F)c(N(C)c2ccc3c(c2)OCCO3)n1 [Compound 480] | > 10 | > 10 | – |
